Data from patent US7700522B2, “α-Oxygenated or α-thiolated carboxylic acid phenethylamide derivatives” (Syngenta Crop Protection, Inc., priority 2001, dated 2010).

What was measured:
Assay type in all cases: in vivo
Plasmopara viticola [1] = test: D-1a residual-protective action against Plasmopara viticola on vines; settings: test D-1a, vine seedlings, sprayed 24 hours before infection, untreated plants attack 80-100%, read-out: inhibit fungal infestations
Method: (§1) D-1: Action Against Plasmopara Viticola on Vines
(§2) a) Residual-protective Action
Vine seedlings are sprayed at the 4- to 5-leaf stage with a spray mixture (0.02% active ingredient) prepared from a wettable powder formulation of the test compound. After 24 hours, the treated plants are infected with a sporangia suspension of the fungus. Fungus infestation is evaluated after incubation for 6 days at 95-100% relative humidity and +20° C.

Plasmopara viticola [2] = test: D-1b residual-curative action against Plasmopara viticola on vines; settings: test D-1b, vine seedlings, sprayed 24 hours after infection, untreated plants attack 80-100%, read-out: inhibit fungal infestations
Method: as §1
b) Residual-curative Action
Vine seedlings are infected at the 4- to 5-leaf stage with a sporangia suspension of the fungus. After incubation for 24 hours in a humidity chamber at 95-100% relative humidity and +20° C., the infected plants are dried and sprayed with a spray mixture (0.02% active ingredient) prepared from a wettable powder formulation of the test compound. After the spray coating has dried, the treated plants are placed in the humidity chamber again. Fungus infestation is evaluated 6 days after infection.

Phytophthora [3] = test: D-2a residual-protective action against Phytophthora on tomato plants; settings: test D-2a, sprayed 48 hours before infection, untreated plants attack 80-100%, read-out: inhibit fungal infestations
Method: (§3) D-2: Action Against Phytophthora on Tomato Plants
as §2
(§4) After a cultivation period of 3 weeks, tomato plants are sprayed with a spray mixture (0.02% active ingredient) prepared from a wettable powder formulation of the test compound. After 48 hours, the treated plants are infected with a sporangia suspension of the fungus. Fungus infestation is evaluated after incubation of the infected plants for 5 days at 90-100% relative humidity and +20° C.

Phytophthora [4] = test: D-2b systemic action against Phytophthora on tomato plants; settings: test D-2b, soil watering 96 hours before infection, untreated plants attack 80-100%, read-out: inhibit fungal infestations
Method: as §3
as §4, with “watered” for “sprayed”, “ingredient based on the volume of the soil)” for “ingredient)”, “compound. […]” for “compound.”, “96” for “48”, “4” for “5”

Phytophthora [5] = test: D-3a residual-protective action against Phytophthora on potato plants; settings: test D-3a, potato plants (Bintje), sprayed 48 hours before infection, untreated plants attack 80 to 100%, read-out: inhibit fungal infestations
Method: (§5) D-3: Action Against Phytophthora on Potato Plants
as §2
(§6) 2-3 week old potato plants (Bintje variety) are sprayed with a spray mixture (0.02% active ingredient) prepared from a wettable powder formulation of the test compound. After 48 hours, the treated plants are infected with a sporangia suspension of the fungus. Fungus infestation is evaluated after incubation of the infected plants for 4 days at 90-100% relative humidity and +20° C.

Phytophthora [6] = test: D-3b systemic action against Phytophthora on potato plants; settings: test D-3b, potato plants (Bintje), soil watering 48 hours before infection, untreated plants attack 80 to 100%, read-out: inhibit fungal infestations
Method: as §5
as §6, with “watered” for “sprayed”, “ingredient based on the volume of the soil)” for “ingredient)”, “compound. […]” for “compound.”

Measured: inhibition at 200 ppm

C#CCOc1ccc(CCNC(=O)C(Cc2ccccc2)OCC#C)cc1OC (stereo not shown) [Compound E1.03, N-[2-(3-methoxy-4-prop-2-ynyloxy-phenyl)-ethyl]-3-phenyl-2-prop-2-ynyloxy-propionamide]
80 to 100%: all assays above

C#CCOc1ccc(CCNC(=O)C(Cc2ccc(F)cc2)OCC#C)cc1OC (stereo not shown) [Compound E1.06, 3-(4-fluoro-phenyl)-N-[2-(3-methoxy-4-prop-2-ynyloxy-phenyl)-ethyl]-2-prop-2-ynyloxy-propionamide]
80 to 100%: Phytophthora [3] | Phytophthora [4] | Phytophthora [5] | Phytophthora [6]

C#CCOc1ccc(CCNC(=O)C(Cc2ccc(Cl)cc2)OCC#C)cc1OC (stereo not shown) [Compound E1.10, 3-(4-chloro-phenyl)-N-[2-(3-methoxy-4-prop-2-ynyloxy-phenyl)-ethyl]-2-prop-2-ynyloxy-propionamide]
80 to 100%: all assays above

C#CCOc1ccc(CCNC(=O)C(Cc2ccc(Br)cc2)OCC#C)cc1OC (stereo not shown) [Compound E1.15, 3-(4-bromo-phenyl)-N-[2-(3-methoxy-4-prop-2-ynyloxy-phenyl)-ethyl]-2-prop-2-ynyloxy-propionamide]
80 to 100%: all assays above

C#CCOc1ccc(CCNC(=O)C(Cc2ccc(C)cc2)OCC#C)cc1OC (stereo not shown) [Compound E1.18, N-[2-(3-methoxy-4-prop-2-ynyloxy-phenyl)-ethyl]-2-prop-2-ynyloxy-3-p-tolyl-propionamide]
80 to 100%: Plasmopara viticola [1] | Plasmopara viticola [2]

C#CCOc1ccc(CCNC(=O)C(Cc2ccc(CC)cc2)OCC#C)cc1OC (stereo not shown) [Compound E1.22, 3-(4-ethyl-phenyl)-N-[2-(3-methoxy-4-prop-2-ynyloxy-phenyl)-ethyl]-2-prop-2-ynyloxy-propionamide]
80 to 100%: Plasmopara viticola [1] | Plasmopara viticola [2] | Phytophthora [3] | Phytophthora [4]
